The text below walks through data of patent US20140038889A1, “Modulators Of The GPR119 Receptor And The Treatment Of Disorders Related Thereto” (ARENA PHARMACEUTICALS, INC., priority 2011, published 2014).

Converted amounts (≈) assume the structure as drawn. “Also recorded” adds a separate entry of the source. Where a name gives a salt, the structure may show the parent alone.

The test system of one data set is Male ZDF rats. In words: Oral glucose tolerance test (oGTT) in male ZDF rats. Format: in vivo. The following applies: for % Inhibition of Glucose Excursion: AUC relative to vehicle control, ZDF rats. The procedure: Male ZDF rats were fasted for 18 h and randomly grouped (n=6) to receive the GPR119 agonist Compound 1(3 or 10 mg/kg), the control compound, Januvia (3 mg/kg), or a combination of Compound 1(3 mg/kg) and Januvia (3 mg/kg). The compounds were delivered orally via a gavage needle (p.o., volume 4 mL/kg) 60 min prior to glucose bolus (3 g/kg) (time=−60 min in FIG. 4), with a separate group receiving vehicle (20% hydroxypropyl-beta-cyclodextrin (HPCD)) as control. At time 0 min, a glucose bolus was administered. Levels of blood glucose were assessed using a glucometer (One-Touch Ultra™, LifeScan) at time −60 min (prior to compound administration), at 0 min (at time when glucose bolus was given), and at 30, 60, 90, and 120 min post glucose bolus. The plasma glucose excursion curve (FIG. 4) is shown.

The subject of the next data set is humans. The following applies: human studies, infusion, over 24 hours; cited from earlier work.
Another data set is described as follows: Solubility of Compound 1. The data set is classed as physicochemical. The protocol: To a solution of 5-fluoro-4-(2-methyl-6-(methylsulfonyl)pyridin-3-yloxy)-6-(piperidin-4-yloxy)pyrimidine hydrochloride (200 mg, 0.477 mmol) and 2,5-dioxopyrrolidin-1-yl 1-methylcyclopropyl carbonate (247 mg, 1.16 mmol) in DCM (3.5 mL) was added triethylamine (0.333 mL, 2.387 mmol). The reaction mixture was stirred at room temperature for 2 h. The mixture was concentrated under reduced pressure and the residue was purified by silica gel flash column chromatography to give the title compound as a white solid (183 mg, 80% yield). Exact mass calculated for C21H25FN4O6S: 480.15. found: LCMS m/z=481.2 [M+H]^+; ^1H NMR (400 MHz, CDCl3) δ ppm 0.63-0.66 (m, 2H), 0.87-0.90 (m, 2H), 1.56 (s, 3H), 1.82-1.84 (m, 2H), 2.02-2.04 (m, 2H), 2.55 (s, 3H), 3.35 (s, 3H), 3.28-3.37 (m, 2H), 3.78-3.79 (m, 2H), 5.36-5.40 (m, 1H), 7.68 (d, J=12 Hz, 1H), 8.01 (d, J=8 Hz, 1H), 8.07 (s, 1H). Solubility: <0.001 mg/mL (H2O); 2.758 mg/mL (20% HPCD).

The test system of data set [1] is Male 129SVE mice. In words: Oral glucose tolerance test (oGTT) in male 129SVE mice. Format: in vivo. The note with it: for Plasma Glucose, Mean: n=6. The protocol: Male 129SVE mice (approximately 8 weeks old) were fasted for 18 h and randomly grouped (n=6) to receive a GPR119 agonist (Compound 1) at 3, or 10 mg/kg body weight. Compound 1 was delivered orally via a gavage needle (p.o., volume at 4 mL/kg) 30 minutes prior to glucose bolus (3 g/kg) (time=−30 min in FIG. 1), with a separate group receiving vehicle (20% hydroxypropyl-beta-cyclodextrin (HPCD) as a control. At time 0 min the glucose bolus was administered. Levels of blood glucose were assessed using a glucometer (One-Touch Ultra™, LifeScan) at time −30 min (prior to compound administration), at 0 min (when the glucose bolus was given), and at 20, 40, 60, 120 min post glucose bolus. The plasma glucose level (Table A) and glucose excursion curve (FIG. 1) are shown. Glucose excursion reduction (area under the curve (AUC)) in compound-treated animals relative to vehicle control is shown in FIG. 2.

Data set [2] has as its system Male 129SVE mice. Kind of data set: GIP release in male 129SVE mice (plasma total GIP, ELISA). Format: in vivo. The note with it: 3 or 30 mg/kg p.o., 45 min. The protocol: Male 129SVE mice (approximately 8 weeks old) were fasted for 18 h and randomly grouped (n=6) to receive a GPR119 agonist (Compound 1) at 3 or 30 mg/kg body weight. Compound 1 was delivered orally via a gavage needle (4 mL/kg), and after 45 min, a blood sample was collected to determine plasma total GIP levels. A separate control group received vehicle (PET (80% PEG:10% Ethanol:10% Tween80™)). Plasma GIP levels were determined using a GIP (total) ELISA kit from Millipore.
(In an ELISA, binding on a coated surface is turned into a signal by an enzyme label.)

The target of a further data set is T1, GPR119 receptor (Homo sapiens, UniProt Q8TDV5).
T1 construct: expressed in transfected cells
T1 sequence (Q8TDV5 2-335): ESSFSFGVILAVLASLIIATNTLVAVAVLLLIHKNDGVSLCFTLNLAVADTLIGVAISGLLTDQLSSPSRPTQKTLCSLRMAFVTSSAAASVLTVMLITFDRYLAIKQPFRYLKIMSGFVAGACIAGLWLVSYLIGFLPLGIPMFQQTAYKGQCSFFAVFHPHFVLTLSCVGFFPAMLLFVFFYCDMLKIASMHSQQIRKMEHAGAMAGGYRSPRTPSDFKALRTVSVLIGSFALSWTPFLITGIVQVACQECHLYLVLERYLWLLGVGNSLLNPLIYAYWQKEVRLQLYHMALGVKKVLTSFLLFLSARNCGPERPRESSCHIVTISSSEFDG
Kind of data set: HTRF cAMP detection assay in CHO-K1 cells stably expressing the GPR119 receptor. Format: cell-based. The procedure:
GPR119 agonist, Compound 1, was evaluated in an HTRF® cAMP detection assay (Cisbio, cAMP Dynamic 2 Assay Kit; #62AM4PEJ) according to the manufacturer's instructions using CHO-K1 cells stably expressing the GPR119 receptor. CHO-K1 cells were transduced with a lentiviral vector encoding the nucleotide sequence of GPR119 (NCBI mRNA and protein reference sequences: NM_178471.2 & NP_848566). The N-terminus of the GPR119 nucleotide sequence was modified to replace the first, methionine-coding, codon with a nucleotide sequence coding for a standard, nine amino acid, hemagglutinin tag. Following transduction, cells expressing the GPR119 receptor were isolated and a single clone was isolated following standard dilution-cloning procedures. On the day of the assay, cultured CHO-GPR119 cells were harvested, suspended in assay buffer and plated into 384-well assay plates (PerkinElmer® Proxiplate® #6008280) at a density of 2,000 cells per well. A cAMP standard curve was added to each plate. Compound 1 was dissolved in DMSO, serially diluted in DMSO and then diluted in assay buffer before addition to the cells. Compound 1 was evaluated in triplicate, using 10-point, 5-fold serial dilutions starting at 10 μM. […] Plates were then incubated at room temperature for 1 h prior to reading. Time-resolved fluorescence measurements were collected on PerkinElmer Envision™ or BMG Pherastar™ microplate readers. […]

Another data set relates to Male SD rats. In words: Gastric emptying in male SD rats (stomach content 6 h post-dosing). The data set is classed as in vivo. The following applies: SD rats, 3, 10 or 30 mg/kg orally. The protocol:
Male SD rats were fasted for 18 h and randomly grouped (n=5). Fasted rats were allowed to access food for 30 min, and the amount of food consumed was recorded for each rat. At the end of the 30 min food intake, rats were put in cages without food and water, and dosed with Compound 1 at 3, 10, or 30 mg/kg, or vehicle control (20% HPCD) orally, or with exendin-4 (Ex-4) at 100 μg/kg i.p. Six hours post-dosing, rats were euthanized with CO2, and stomach content was determined.

Where [3] appears, read: 3 mg/kg p.o. 60 min prior to glucose bolus (3 g/kg).

Turning to `N[C@@H](CC(=O)N1CCn2c(nnc2C(F)(F)F)C1)Cc1cc(F)c(F)cc1F` [Januvia, dihydrogenphosphate salt of 3(R)-amino-1-[3-(trifluoromethyl)-5,6,7,8-tetrahydro[1,2,4]triazolo[4,3-a]pyrazin-7-yl]-4-(2,4,5-trifluorophenyl)butan-1-one, reference compound], the “% Inhibition of Glucose Excursion” value in the data set with Male ZDF rats (setting [3]) is recorded as 57.0%.

“PYY3-36: form of Peptide YY generated from PYY1-36 by cleavage of the N-terminal Tyr and Pro residues by DPP-IV”: in the data set with humans, the “Reduction of food intake” value is 33%.

As usually defined, the solubility is how much of the substance goes into solution per volume. Low values mean little dissolved substance, high ones much dissolved substance. The EC50 is the midpoint of the concentration-response curve. For the compound `Cc1nc(S(C)(=O)=O)ccc1Oc1ncnc(OC2CCN(C(=O)OC3(C)CC3)CC2)c1F` [Compound 1, 1-methylcyclopropyl 4-(5-fluoro-6-(2-methyl-6-(methylsulfonyl)pyridin-3-yloxy)pyrimidin-4-yloxy)piperidine-1-carboxylate], the solubility in “Solubility of Compound 1” (20% HPCD, aqueous with cosolvent or surfactant or cyclodextrin) was 2760 µg/mL (≈ 5.74 mM); in the data set “Solubility of Compound 1” (water, H2O), below 1 µg/mL. For the same compound, the “Plasma Glucose, Mean” value with Male 129SVE mice [1] (3 mg/kg p.o., 0 min relative to glucose bolus) came to 92.0 mg/dL; in the data set on Male 129SVE mice [1] (3 mg/kg p.o., 20 min post glucose bolus (3 g/kg)), 207.0 mg/dL; in the data set with Male 129SVE mice [1] (3 mg/kg p.o., 40 min post glucose bolus (3 g/kg)), 280.6667 mg/dL; with Male 129SVE mice [1] (3 mg/kg p.o., 60 min post glucose bolus (3 g/kg)) it was 248.8333 mg/dL; with Male 129SVE mice [1] (3 mg/kg p.o., 120 min post glucose bolus (3 g/kg)), 161.8333 mg/dL; with Male 129SVE mice [1] (3 mg/kg p.o., -30 min relative to glucose bolus (prior to compound administration)), 75.17 mg/dL. Also, the “Plasma Glucose, Mean” value in the data set with Male 129SVE mice [1] (10 mg/kg p.o., 0 min relative to glucose bolus) stood at 94.5 mg/dL; in the data set with Male 129SVE mice [1] (10 mg/kg p.o., 20 min post glucose bolus (3 g/kg)), 190.3333 mg/dL; with Male 129SVE mice [1] (10 mg/kg p.o., 40 min post glucose bolus (3 g/kg)) it was 229.6667 mg/dL; with Male 129SVE mice [1] (10 mg/kg p.o., 60 min post glucose bolus (3 g/kg)), 199.6667 mg/dL; in the data set on Male 129SVE mice [1] (10 mg/kg p.o., 120 min post glucose bolus (3 g/kg)), 150.6667 mg/dL; in the data set on Male 129SVE mice [1] (10 mg/kg p.o., -30 min relative to glucose bolus (prior to compound administration)), 71.5 mg/dL. Moreover, in the data set on Male 129SVE mice [1] (male 129SVE mice, 3 or 10 mg/kg p.o.), the “Effect on blood glucose after challenge with glucose (in words)” value is on record as “lowered blood glucose”. For the same compound, the “Effect on plasma glucose levels in oGTT (in words)” value with Male 129SVE mice [1] (male 129SVE mice, dose of 10 mg/kg) is “significantly reduced plasma glucose levels”. For the same compound, in the data set with Male 129SVE mice [2], the “Release of GIP (plasma total GIP, in words)” value is “stimulates the release of GIP”. Further, the “Agonist activity at GPR119 (in words)” value at GPR119 receptor was “potent and selective agonist; also recorded: full agonist”. In addition, at GPR119 receptor (CHO-K1 cells stably expressing GPR119, 1 h incubation), the EC50 stood at 14.9 nM. The “% Inhibition of Glucose Excursion” value in the data set on Male ZDF rats (setting [3]) stood at 14.8%; with Male ZDF rats (10 mg/kg p.o. 60 min prior to glucose bolus (3 g/kg)), 26.2%. In addition, the “Effect on blood glucose after a challenge with glucose (in words)” value in the data set on Male ZDF rats (diabetic ZDF rats, 3 or 10 mg/kg p.o.) is on record as “lowered blood glucose”. For the same compound, the “Effect on gastric emptying (in words)” value with Male SD rats is recorded as “had an effect on gastric emptying at high dosage (30 mg/kg), but that effect was less pronounced than the positive control, Ex-4”.
